How the values were obtained:
[1] = system: ZEAMX (Corn, Field); assay: Postemergence herbicidal evaluation; format: in vivo, Zea mays; details: for ZEAMX herbicidal rating / Herbicidal rating ZEAMX: postemergence
Outline: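 Visual 0-9 injury score (stand, vigor, malformation, size, chlorosis, appearance vs untreated) taken four to five weeks post-spray, averaged across repeat tests. Test plants about two weeks old; foliar spray of acetone/water (1:1) with 0.5% surfactant delivering ~0.0156-0.500 kg active/ha.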

[2] = system: ABUTH (Velvetleaf); assay: Preemergence herbicidal evaluation; format: in vivo, Abutilon theophrasti; details: rated 4-5 weeks after treatment
Outline: (§1)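 Visual 0-9 rating vs control (stand, vigor, malformation, size, chlorosis, overall appearance), scored 4-5 wk after spraying. Seeded soil cups were treated preemergence with compound in aqueous acetone, ~0.0156-0.500 kg/ha equivalent.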

[3] = system: AMBEL (Ragweed, Common); assay: Preemergence herbicidal evaluation; format: in vivo, Ambrosia artemisifolia; details: rated 4-5 weeks after treatment
Outline: as §1

[4] = system: GLXMAW (Soybean, Williams); assay: Preemergence herbicidal evaluation; format: in vivo, Glycine max, (L.) Merr. cv Williams; details: rated 4-5 weeks after treatment
Outline: as §1

[5] = system: ORYSAT (Rice, Tebonnet); assay: Rice tolerance to post-transplant applications, flooded paddy conditions (Table III); format: in vivo, Oryza sativa, (L.) Tebonnet; details: for Herbicidal rating ORYSAT (rice tolerance): post-transplant rice, flooded paddy, rated 3-4 weeks after treatment
Method: (§2) Results of herbicide evaluation are expressed on a rating scale (0-9). The scale is based upon a visual observation of plant stand, vigor, malformation, size, chlorosis and overall plant appearance as compared with a control.
The tolerance of transplanted rice to post-transplanted herbicide applications is determined as follows: two ten-day-old rice seedlings (cv. Tebonnet) are transplanted into silt loam soil in 32 oz. plastic containers with a diameter of 10.5 cm and no drainage holes. After transplanting, the containers are flooded and the water level is maintained at 1.5 to 3 cm above the soil surface. Three days after transplanting, the flooded soil surface of the containers is treated with the selected aqueous/acetone 50/50 v/v mixture containing the test compounds to provide the equivalent of about 0.0313 to 0.500 kg/ha of active ingredient. The treated containers are placed on greenhouse benches, watered such that the water level is maintained as stated above, and cared for in accordance with conventional greenhouse procedures. Three to four weeks after treatment, the test is terminated and each container is examined and herbicidal effect rated according to the rating system provided in Example 37. The compounds evaluated are reported by compound number given in Example 37.
Plant species employed in this example are reported by header abbreviation, common name and scientific name.

[6] = system: SAGPY (Arrowhead (Pygmaea)); assay: Postemergence weed control under flooded paddy conditions; format: in vivo, Sagittaria pygmaea; details: postemergence weeds
Outline: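 Flood-water application, about 0.0313–0.500 kg/ha a.i. in aqueous/acetone 50/50 v/v; water depth 1.5–3 cm throughout. Weeds 3–5 cm, rice 1.5–2.5 leaf. Greenhouse; 0–9 visual rating vs control at 3–4 wk.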

[7] = system: ORYSAT (Rice, Tebonnet); assay: Rice tolerance to post-transplant applications, flooded paddy conditions (Table IV); format: in vivo, Oryza sativa, (L.) Tebonnet
Excerpt: as §2
Plastic containers containing weeds which are 3 to 5 cm tall and rice seedlings at the 1.5 to 2.5 leaf stage are flooded with water. The water is maintained at 1.5 to 3 cm above the soil surface for the duration of the experiment. Test compounds are applied as aqueous/ acetone mixtures 50/50 v/v directly into the flood water to provide the equivalent of about 0.0313 to 0.500 kg/ha of active ingredient. The treated containers are placed on greenhouse benches and cared for in accordance with conventional greenhouse procedures. Three to four weeks after treatment, the test is terminated and each container is examined and herbicidal effect rated according to the rating system provided in Example 37. The compounds evaluated are reported by compound number given in Example 37.

With `CCOC(=O)CN1CC(=O)N(CC(=O)OCC)C1=Nc1cc(-n2c(=O)cc(C(F)(F)F)n(C)c2=O)c(F)cc1Cl` [Compound 34, 2-{{2-Chloro-5-[3,6-dihydro-3-methyl-2,6-dioxo-4-(trifluoromethyl)-1(2H)-pyrimidinyl]-4-fluoro-phenyl}imino}-4-oxo-1,3-imidazolidinediacetic acid, diethyl ester] the “Postemergence herbicidal rating ZEAMX” value ([1]; Rate 0.0158 kg/ha) was 5.5, the “Postemergence herbicidal rating ZEAMX” value ([1]; Rate 0.0315 kg/ha) was 6.5 and the “Postemergence herbicidal rating ZEAMX” value ([1]; Rate 0.0630 kg/ha) was 7.0. The “Preemergence herbicidal rating ABUTH” value ([2]; rate 0.0313 kg/ha) was 9.0, the “Preemergence herbicidal rating ABUTH” value ([2]; rate 0.0625 kg/ha) was 9.0 and the “Preemergence herbicidal rating ABUTH” value ([2]; rate 0.1250 kg/ha) was 9.0. The “Preemergence herbicidal rating ABUTH” value ([2]; rate 0.2500 kg/ha) was 9.0, the “Preemergence herbicidal rating AMBEL” value ([3]; rate 0.0313 kg/ha) was 0.0 and the “Preemergence herbicidal rating AMBEL” value ([3]; rate 0.0625 kg/ha) was 4.0. The “Preemergence herbicidal rating AMBEL” value ([3]; rate 0.1250 kg/ha) was 4.0, the “Preemergence herbicidal rating AMBEL” value ([3]; rate 0.2500 kg/ha) was 7.0 and the “Preemergence herbicidal rating GLXMAW” value ([4]; rate 0.0313 kg/ha) was 0.0. For the same compound, the “Preemergence herbicidal rating GLXMAW” value ([4]; rate 0.0625 kg/ha) was 0.0, the “Preemergence herbicidal rating GLXMAW” value ([4]; rate 0.1250 kg/ha) was 0.0 and the “Preemergence herbicidal rating GLXMAW” value ([4]; rate 0.2500 kg/ha) was 0.0. The “Herbicidal rating ORYSAT (rice tolerance)” value (“Herbicidal rating ORYSAT” below) ([5]; 0.0313 kg/ha) was 3.0, the “Herbicidal rating ORYSAT” value ([5]; 0.0625 kg/ha) was 3.0 and the “Herbicidal rating ORYSAT” value ([5]; 0.1250 kg/ha) was 4.0. The “Herbicidal rating ORYSAT” value ([5]; 0.2500 kg/ha) was 6.0, the “Herbicidal rating SAGPY” value ([6]; rate 0.0313 kg/ha, 3-4 weeks after treatment) was 0.0 and the “Herbicidal rating SAGPY” value ([6]; rate 0.0625 kg/ha, 3-4 weeks after treatment) was 0.0. The “Herbicidal rating SAGPY” value ([6]; rate 0.1250 kg/ha, 3-4 weeks after treatment) was 0.0, the “Herbicidal rating SAGPY” value ([6]; rate 0.2500 kg/ha, 3-4 weeks after treatment) was 0.0 and the “Herbicidal rating ORYSAT” value ([7]; rate 0.0313 kg/ha, flooded paddy, post-transplant rice, 3-4 weeks after treatment) was 3.0. The “Herbicidal rating ORYSAT” value ([7]; rate 0.0625 kg/ha, flooded paddy, post-transplant rice, 3-4 weeks after treatment) was 3.0, the “Herbicidal rating ORYSAT” value ([7]; rate 0.1250 kg/ha, flooded paddy, post-transplant rice, 3-4 weeks after treatment) was 4.0 and the “Herbicidal rating ORYSAT” value ([7]; rate 0.2500 kg/ha, flooded paddy, post-transplant rice, 3-4 weeks after treatment) was 6.0.

With `CC(C)C[C@@H](C(=O)O)N1C(=O)CSC1=Nc1cc(-n2c(=O)cc(C(F)(F)F)n(C)c2=O)c(F)cc1Cl` [Compound 71, α-Isobutyl-2-{{2-chloro-5-[3,6-dihydro-3-methyl-2,6-dioxo-4-(trifluoromethyl)-1(2H)-pyrimidinyl]-4-fluorophenyl}imino}-4-oxo-3-thiazolidineacetic acid, L-] the ZEAMX herbicidal rating ([1]; rate 0.0158 kg/ha) was 5.0, the ZEAMX herbicidal rating ([1]; rate 0.0315 kg/ha) was 5.0 and the ZEAMX herbicidal rating ([1]; rate 0.0630 kg/ha) was 7.0. The “Preemergence herbicidal rating ABUTH” value ([2]; rate 0.0156 kg/ha) was 1.0, the “Preemergence herbicidal rating ABUTH” value ([2]; rate 0.0313 kg/ha) was 9.0 and the “Preemergence herbicidal rating ABUTH” value ([2]; rate 0.0625 kg/ha) was 9.0. For the same compound, the “Preemergence herbicidal rating ABUTH” value ([2]; rate 0.1250 kg/ha) was 9.0, the “Preemergence herbicidal rating ABUTH” value ([2]; rate 0.2500 kg/ha) was 9.0 and the “Preemergence herbicidal rating AMBEL” value ([3]; rate 0.0156 kg/ha) was 1.0. For the same compound, the “Preemergence herbicidal rating AMBEL” value ([3]; rate 0.0313 kg/ha) was 2.0, the “Preemergence herbicidal rating AMBEL” value ([3]; rate 0.0625 kg/ha) was 7.0 and the “Preemergence herbicidal rating AMBEL” value ([3]; rate 0.1250 kg/ha) was 9.0. For the same compound, the “Preemergence herbicidal rating AMBEL” value ([3]; rate 0.2500 kg/ha) was 9.0, the “Preemergence herbicidal rating GLXMAW” value ([4]; rate 0.0156 kg/ha) was 1.0 and the “Preemergence herbicidal rating GLXMAW” value ([4]; rate 0.0313 kg/ha) was 0.0. For the same compound, the “Preemergence herbicidal rating GLXMAW” value ([4]; rate 0.0625 kg/ha) was 1.0, the “Preemergence herbicidal rating GLXMAW” value ([4]; rate 0.1250 kg/ha) was 3.0 and the “ORYSAT herbicidal effect rating (rice tolerance)” value ([5]; in vivo) was 4.0. The “Herbicidal rating SAGPY” value ([6]; Rate 0.1250 kg/ha, rated 3 to 4 weeks after treatment) was 0.0, the “Herbicidal rating SAGPY” value ([6]; Rate 0.2500 kg/ha, rated 3 to 4 weeks after treatment) was 0.0 and the “Herbicidal rating ORYSAT” value ([7]; in vivo) was 4.0.

With `CCOC(=O)CN1C(=O)C(C(=O)OC(C)(C)C)SC1=Nc1cc(-n2c(=O)cc(C(F)(F)F)n(C)c2=O)c(F)cc1Cl` (stereo not shown) [Compound 167, 5-Carboxy-2-{{2-chloro-5-[3,6-dihydro-3-methyl-2,6-dioxo-4-(trifluoromethyl)-1(2H)-pyrimidinyl]-4-fluorophenyl}imino}-4-oxo-3-thiazolidineacetic acid, 5-tert-butyl ethyl ester] the “Herbicidal rating ZEAMX” value ([1]; rate 0.0156 kg/ha) was 4.5, the “Herbicidal rating ZEAMX” value ([1]; rate 0.0313 kg/ha) was 5.5 and the “Herbicidal rating ZEAMX” value ([1]; rate 0.0625 kg/ha) was 5.5. The “Herbicidal rating ZEAMX” value ([1]; rate 0.1250 kg/ha) was 5.5, the “Preemergence herbicidal rating ABUTH” value ([2]; 0.0313 kg/ha) was 0.0 and the “Preemergence herbicidal rating ABUTH” value ([2]; 0.0625 kg/ha) was 9.0. The “Preemergence herbicidal rating ABUTH” value ([2]; 0.1250 kg/ha) was 9.0, the “Preemergence herbicidal rating ABUTH” value ([2]; 0.2500 kg/ha) was 9.0 and the “Preemergence herbicidal rating ABUTH” value ([2]; 0.5000 kg/ha) was 9.0. For the same compound, the “Preemergence herbicidal rating AMBEL” value ([3]; 0.0156 kg/ha) was 1.0, the “Preemergence herbicidal rating AMBEL” value ([3]; 0.0313 kg/ha) was 0.0 and the “Preemergence herbicidal rating AMBEL” value ([3]; 0.0625 kg/ha) was 7.0. For the same compound, the “Preemergence herbicidal rating AMBEL” value ([3]; 0.1250 kg/ha) was 6.0, the “Preemergence herbicidal rating AMBEL” value ([3]; 0.2500 kg/ha) was 7.0 and the “Preemergence herbicidal rating AMBEL” value ([3]; 0.5000 kg/ha) was 8.0. For the same compound, the “Preemergence herbicidal rating GLXMAW” value ([4]; 0.0156 kg/ha) was 1.0, the “Preemergence herbicidal rating GLXMAW” value ([4]; 0.0313 kg/ha) was 0.0 and the “Preemergence herbicidal rating GLXMAW” value ([4]; 0.0625 kg/ha) was 0.0. The “Preemergence herbicidal rating GLXMAW” value ([4]; 0.1250 kg/ha) was 4.0, the “Preemergence herbicidal rating GLXMAW” value ([4]; 0.2500 kg/ha) was 4.0 and the “Preemergence herbicidal rating GLXMAW” value ([4]; 0.5000 kg/ha) was 7.0. The “herbicidal effect rating, ORYSAT (rice tolerance)” value ([5]; in vivo) was 4.0.

— patent publication US20020137929A1, “1 - (3-heterocyclylphenyl) isothiourea, -isourea, -guanidine and -amidine herbicidal agents” (Intellectual Property Department, BASF Aktiengesellschaft, priority 1998, published 2002)
